Publication PMC9964746, “Mechanism of Action and Structure–Activity Relationships of Tetracyclic Small Molecules Acting as Universal Positive Allosteric Modulators of the Cholecystokinin Receptor” (Membranes, 2023)
“And” between values parts separate entries of the source, which are not always exact repeats. Equal entries are not always repeated.

How the values were obtained:
Assay type in all cases: cell-based
[1] = target: T1, vasopressin-2 receptor (AVP2R) (Homo sapiens, UniProt P30518); experiment: AVP2R cAMP HTRF accumulation assay; conditions: CHO-K1 AVP2R cells; for AVP2R PAM (cAMP) Score (activity score = normalized Emax × pEC50): PAM format; for EC50 / Emax: PAM format with vasopressin, original hits: agonist and PAM data combined, average ± SD
T1 construct: expressed in transfected cells; host or cells: CHO-K1 (PAM format); HEK-293 (agonist format)
Description: Possible off-target biological effects. […] Here, we tested them at the vasopressin-2 receptor (AVP2R), representing a class A GPCR structurally related to CCK1R, which is coupled to Gs. The activity at AVP2R was tested using AVP2R-overexpressing CHO-K1 (PAM format) or HEK-293 (agonist format) cells, stimulating the cells with vasopressin. Original hits were tested in both agonist and PAM formats. Since all recognized compound responses were present in both formats, we continued to screen analogs in only the PAM format (also able to capture agonist effects) in CHO-K1 AVP2R cells for potential enhanced sensitivity. The dose–response data sets for original hits were combined, as the PAM and agonist effects were indistinguishable. In brief, arginine vasopressin (AVP) orthosteric stimulator dilutions and ligand and compound dose–response titrations in DMSO were transferred onto a 1536-well plate (Corning #3725) using an Echo liquid handler (Labcyte). Thawed cryopreserved cell stocks were diluted in stimulation buffer consisting of HBSS (Hank’s Balanced Salt Solution with Ca^2+ and Mg^2+, Gibco #24020117), 5 mM HEPES (hydroxyethyl piperazineethanesulfonic acid), 0.5 mM IBMX (3-isobutyl-1-methylxanthine, Sigma-Aldrich), and 0.075% BSA (7.5% DTPA-purified bovine serum albumin, PerkinElmer). The resulting cell suspension was added to the microplate and incubated with test compounds at room temperature for 30 min. Then, the detection reagents from the Cisbio cAMP Gs Dynamic HTRF detection kit were added. The plate was kept at room temperature for 30 min and read on a PHERAstar FSX microplate reader. Dose–response curves were performed as 16-point 2-fold dilutions in duplicate in at least two independent experiments.

CCK1R [2] = target: T2, CCK1R (Homo sapiens, UniProt P32238); experiment: IP-One accumulation TR-FRET assay, PAM format, HEK-293 CCK1R cells; parameters: expressed in transfected cells; host or cells: HEK-293; conditions: for Emax: HEK293, relative to CCK control; for Emax / CCK1R PAM (IP-One) Score (activity score = normalized Emax × pEC50) / EC50: HEK-293 CCK1R cells; for Emax / CCK1R PAM (IP-One) Score (activity score = normalized Emax × pEC50): PAM format; for Emax / EC50: average ± SD; for EC50: PAM format with EC20 CCK
T2 sequence (P32238 1-428): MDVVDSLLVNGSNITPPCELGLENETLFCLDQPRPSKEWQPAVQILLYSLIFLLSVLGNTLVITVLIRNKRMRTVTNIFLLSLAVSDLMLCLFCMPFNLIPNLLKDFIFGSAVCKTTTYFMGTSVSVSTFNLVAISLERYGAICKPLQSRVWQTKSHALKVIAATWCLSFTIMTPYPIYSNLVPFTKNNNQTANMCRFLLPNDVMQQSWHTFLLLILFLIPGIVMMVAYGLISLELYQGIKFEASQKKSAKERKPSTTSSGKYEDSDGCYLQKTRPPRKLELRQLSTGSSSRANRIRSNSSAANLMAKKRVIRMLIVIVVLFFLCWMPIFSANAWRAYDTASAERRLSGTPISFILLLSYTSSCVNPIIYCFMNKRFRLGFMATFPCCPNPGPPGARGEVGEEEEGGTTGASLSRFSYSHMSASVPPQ
Description: (§1) For structure–activity relationship studies, we performed myo-inositol-1-phosphate (IP-One) accumulation assays with TR-FRET technology applied to the HEK-293 cell line overexpressing CCK1Rs, as we had described in our high throughput screening effort. In brief, thawed cryopreserved cell stocks were re-suspended in IP-One assay media consisting of phenol-red free DMEM (Corning, Corning, NY, USA, #17-205-CV) with 10% FBS, 1% penicillin (10,000 units)/streptomycin (10 mg) (Pen/Strep, Thermo Fisher Scientific, Waltham, MA, USA, Gibco #15140122), and 1% L-glutamine (200 mM) (Gibco #25030081) and diluted to required cell densities. Then, the cell suspension was dispensed into a 1536-well tissue culture microplate (Corning, #3727), and the plate was incubated overnight at 37 °C and 5% CO^2. After 16–20 h, DMSO or compounds were added with an Echo liquid handler (Labcyte, San Jose, CA, USA), resulting in a top final compound concentration of 50 µM diluted 2-fold for 16-point dose–responses. For the positive allosteric modulator (PAM) format, orthosteric stimulator (CCK) dilutions for control wells were prepared in assay media containing 150 mM lithium chloride (LiCl, 50 mM final, Sigma-Aldrich, St Louis, MO, USA, #L7026). After a 30 min incubation of test compounds at 37 °C and 5% CO2, orthosteric stimulator dilutions (for PAM format) or equivalent dilutions of DMSO (for agonist format) were added to designated wells using BioRaptr (Beckman Coulter, Brea, CA, USA). In addition, CCK control ligand dilutions were included on each test plate. After that, the plate was incubated for 1 h at 37 °C and 5% CO^2 and equilibrated to room temperature. Detection reagents from the IP-One Gq detection kit from Cisbio (Cisbio US Inc., Bedford, MA, USA, #62IPAPEJ) were added, and after 1 h at RT, IP-One content was measured with a PHERAstar FSX microplate reader (BMG Labtech, Ortenberg, Germany). Control ligand dose–responses were analyzed using GraphPad Prism 9.3.1 (San Diego, CA, USA) to validate adequate control and test well concentrations for positive allosteric modulation (PAM) and agonist formats. Dose–response curves were performed as 16-point 2-fold dilutions in duplicates in at least three independent experiments. Large data sets were uploaded and analyzed with CBIS (Chemical and Biology Information System software, ChemInnovation Software, Inc., San Diego, CA, USA). Further data analysis for detailed SAR studies was conducted using the D360 software (Certara).
(§2) The potency and efficacy data for these compounds were used to calculate their activity scores using the following formula: Activity Score = normalized Emax × pEC50. Normalized Emax represents the efficacy of the compound as a fractional response relative to that of the CCK control ligand. pEC50 represents the positive logarithmic value of compound EC50 concentrations in (M).

CCK1R [3] = target: T2, CCK1R; experiment: IP-One accumulation TR-FRET assay, agonist format, HEK-293 CCK1R cells; parameters: expressed in transfected cells; host or cells: HEK-293; conditions: for Emax: HEK293, relative to CCK control, average ± SD, read-out: CCK1R Ago (IP-One) Emax
Description: as §1, §2

T1 sequence (P30518 whole entry): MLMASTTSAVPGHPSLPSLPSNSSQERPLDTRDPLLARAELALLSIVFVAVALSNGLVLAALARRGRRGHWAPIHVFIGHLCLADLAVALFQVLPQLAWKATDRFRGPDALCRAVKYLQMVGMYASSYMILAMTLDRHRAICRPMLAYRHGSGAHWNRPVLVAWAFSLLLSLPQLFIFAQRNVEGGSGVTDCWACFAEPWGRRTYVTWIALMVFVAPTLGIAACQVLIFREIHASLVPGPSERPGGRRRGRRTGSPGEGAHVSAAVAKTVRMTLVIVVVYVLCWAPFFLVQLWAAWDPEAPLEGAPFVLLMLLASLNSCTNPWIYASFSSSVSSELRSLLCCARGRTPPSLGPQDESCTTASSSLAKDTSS

Compound: c1ccc(-c2nc3sc4c(NCCN5CCOCC5)ncnc4c3c3c2CCCC3)cc1 [CMP-26]
- AVP2R PAM (cAMP) Score (activity score = normalized Emax × pEC50) [1]: 0.9 and 0.87
- EC50 [1]: 3.7 ± 0.5 µM
- Emax [1]: 16 ± 4%
- Emax (CCK1R [2]): 41 ± 15%
- CCK1R PAM (IP-One) Score (activity score = normalized Emax × pEC50) (CCK1R [2]): 1.8 and 1.76
- EC50 (CCK1R [2]): 30.2 ± 11.2 µM

Compound: c1nc(N2CCNCC2)c2sc3nc(N4CCOCC4)c4c(c3c2n1)CCCC4 [CMP-3]
- AVP2R PAM (cAMP) Score (activity score = normalized Emax × pEC50) [1]: 1.6 and 1.64
- EC50 [1]: 14.8 ± 10.3 µM
- Emax [1]: 34 ± 5.3%
- Emax (CCK1R [2]): 60 ± 23%
- CCK1R PAM (IP-One) Score (activity score = normalized Emax × pEC50) (CCK1R [2]): 2.8 and 2.77
- EC50 (CCK1R [2]): 16.6 ± 15.9 µM

Compound: CCCc1nc2oc3c(N(C)CCO)ncnc3c2c2c1CCCC2 [CMP-39]
- AVP2R PAM (cAMP) Score (activity score = normalized Emax × pEC50) [1]: 0
- Emax [1]: 0%
- CCK1R Ago (IP-One) Score (activity score = normalized Emax × pEC50) (CCK1R [3]): 0
- Emax (CCK1R [3]): 0%

Compound: Cc1nc2sc3c(NCCN4CCOCC4)ncnc3c2c2c1CCCC2 [CMP-61]
- AVP2R PAM (cAMP) Score (activity score = normalized Emax × pEC50) [1]: 0
- CCK1R Ago (IP-One) Score (activity score = normalized Emax × pEC50) (CCK1R [3]): 0

Compound: CN(C)CCCNc1ncnc2c1sc1nc(N3CCOCC3)c3c(c12)CCC3 [CMP-43]
- CCK1R IP-One activity (in words) (CCK1R [2]; PAM and agonist formats): showed no agonist or PAM activity
- CCK1R Ago (IP-One) Score (activity score = normalized Emax × pEC50) (CCK1R [3]): 0
- Emax (CCK1R [3]): 0%

Compound: CC(C)Cc1nc2oc3c(NCCN(C)C)ncnc3c2c2c1CCCC2 [CMP-25]
- EC50 [1]: 8.6 ± 5.4 µM
- Emax [1]: 74 ± 12%
- Emax (CCK1R [2]): 38 ± 11%
- CCK1R PAM (IP-One) Score (activity score = normalized Emax × pEC50) (CCK1R [2]): 1.79
- EC50 (CCK1R [2]): 14.5 ± 5.3 µM

Compound: CCCCc1nc2sc3c(NCCCO)ncnc3c2c2c1CCC2 [CMP-5]
- AVP2R PAM (cAMP) Score (activity score = normalized Emax × pEC50) [1]: 1.6 and 1.61
- EC50 [1]: 8.1 ± 8.5 µM
- Emax [1]: 32 ± 11%
- Emax (CCK1R [2]): 53 ± 6%
- CCK1R PAM (IP-One) Score (activity score = normalized Emax × pEC50) (CCK1R [2]): 2.7 and 2.66
- EC50 (CCK1R [2]): 7.5 ± 2.9 µM

Compound: CC(C)c1nc2sc3c(NCCN4CCOCC4)ncnc3c2c2c1CCCC2 [CMP-54]
- AVP2R PAM (cAMP) Score (activity score = normalized Emax × pEC50) [1]: 2.0 and 1.96
- EC50 [1]: 26.2 ± 2.4 µM
- Emax [1]: 43 ± 7%
- CCK1R Ago (IP-One) Score (activity score = normalized Emax × pEC50) (CCK1R [3]): 0

Compound: CC(C)c1nc2oc3c(N4CCC(Cc5ccccc5)CC4)ncnc3c2c2c1CCC2 [CMP-63]
- AVP2R PAM (cAMP) Score (activity score = normalized Emax × pEC50) [1]: 0
- Emax [1]: 0%
- CCK1R Ago (IP-One) Score (activity score = normalized Emax × pEC50) (CCK1R [3]): 0
- Emax (CCK1R [3]): 0%

Compound: CCCc1nc2oc3c(NCCCO)ncnc3c2c2c1CCCC2 [CMP-58]
- AVP2R PAM (cAMP) Score (activity score = normalized Emax × pEC50) [1]: 0
- Emax [1]: 0%
- CCK1R Ago (IP-One) Score (activity score = normalized Emax × pEC50) (CCK1R [3]): 0
- Emax (CCK1R [3]): 0%

Compound: CCCc1nc2oc3c(NCc4ccncc4)ncnc3c2c2c1CCCC2 [CMP-60]
- AVP2R PAM (cAMP) Score (activity score = normalized Emax × pEC50) [1]: 0
- Emax [1]: 0%
- CCK1R Ago (IP-One) Score (activity score = normalized Emax × pEC50) (CCK1R [3]): 0
- Emax (CCK1R [3]): 0%
